Experiment: Essential fatty acid parameters in plasma and RBC, 6-week AAMI study
Format: in vivo, human
Experimental: Blood samples (10 mL) were collected at Visit 1 (screening) and at Visits 4, 5 and 6. Analysis was performed by MSR Lipid Analysis, Scottish Crop Research Institute, Dundee, UK. The screening sample acted as baseline for the EFA measurements. Lipid was extracted from plasma, serum and RBC suspensions and converted into fatty acid methyl esters which were analyzed by gas chromatography to give fatty acid profiles as micrograms fatty acid per gram of sample (μgFA/g) and normalized area percent. RBC and plasma EFA data were collected at baseline, Day 14, 28 and 42 and summarized by visit for each treatment group. Change from baseline and percent change from baseline were also summarized. ANCOVA comparison of ethyl-EPA dose groups and ethyl-EPA versus placebo was performed.

CC/C=C\C/C=C\C/C=C\C/C=C\C/C=C\CCCC(=O)OCC [AMR101, ethyl eicosapentaenoate]
AA, Plasma, Mean (SD) change from Baseline (1 g daily, Day 14): −9.7 (22.20) μg/g
AA, RBC, Mean (SD) change from Baseline (1 g daily, Day 14): −8.1 (21.95) μg/g
DGLA, Plasma, mean (SD) change from Baseline (1 g daily, Day 14): −10.4 (10.90) μg/g
DGLA, RBC, mean (SD) change from Baseline (1 g daily, Day 14): −2.7 (3.82) μg/g
DHA, Plasma, Mean (SD) change from Baseline (1 g daily, Day 14): −6.4 (13.30) μg/g
DHA, RBC, Mean (SD) change from Baseline (1 g daily, Day 14): −4.6 (9.76) μg/g
AA, Plasma, Mean (SD) change from Baseline (1 g daily, Day 28): −11.3 (28.13) μg/g
AA, RBC, Mean (SD) change from Baseline (1 g daily, Day 28): −17.0 (20.69) μg/g
DGLA, Plasma, mean (SD) change from Baseline (1 g daily, Day 28): −10.6 (10.23) μg/g
DGLA, RBC, mean (SD) change from Baseline (1 g daily, Day 28): −3.8 (3.31) μg/g
DHA, Plasma, Mean (SD) change from Baseline (1 g daily, Day 28): −6.6 (15.53) μg/g
DHA, RBC, Mean (SD) change from Baseline (1 g daily, Day 28): −6.4 (11.57) μg/g
AA, Plasma, Mean (SD) change from Baseline (1 g daily, Day 42): −8.7 (31.35) μg/g
AA, RBC, Mean (SD) change from Baseline (1 g daily, Day 42): −14.2 (27.69) μg/g
DGLA, Plasma, mean (SD) change from Baseline (1 g daily, Day 42): −9.4 (9.41) μg/g
DGLA, RBC, mean (SD) change from Baseline (1 g daily, Day 42): −3.5 (4.51) μg/g
DHA, Plasma, Mean (SD) change from Baseline (1 g daily, Day 42): −5.4 (18.17) μg/g
DHA, RBC, Mean (SD) change from Baseline (1 g daily, Day 42): −7.0 (12.20) μg/g
EPA/AA, Plasma, mean (SD) change from Baseline (1 g daily, Day 42): 0.3
AA, Plasma, LS Mean, 1 g versus 4 g (1 g versus 4 g): 4.2 µg/g
AA, RBC, LS Mean, 1 g versus 4 g (1 g versus 4 g): 8.4 µg/g
DGLA, Plasma, LS mean, 1 g versus 4 g (1 g versus 4 g): 3.7 µg/g
DGLA, RBC, LS mean, 1 g versus 4 g (1 g versus 4 g): 1.5 µg/g
DHA, Plasma, LS mean, 1 g versus 4 g (1 g versus 4 g): -0.8 µg/g
DHA, RBC, LS mean, 1 g versus 4 g (1 g versus 4 g): 1.0 µg/g
AA, Plasma, Mean (SD) change from Baseline (2 g daily, Day 14): −13.9 (22.13) μg/g
AA, RBC, Mean (SD) change from Baseline (2 g daily, Day 14): −3.1 (25.84) μg/g
DGLA, Plasma, mean (SD) change from Baseline (2 g daily, Day 14): −14.1 (6.88) μg/g
DGLA, RBC, mean (SD) change from Baseline (2 g daily, Day 14): −2.6 (3.54) μg/g
DHA, Plasma, Mean (SD) change from Baseline (2 g daily, Day 14): −5.4 (14.29) μg/g
DHA, RBC, Mean (SD) change from Baseline (2 g daily, Day 14): −2.0 (9.46) μg/g
AA, Plasma, Mean (SD) change from Baseline (2 g daily, Day 28): 21.6 (28.32) μg/g
AA, RBC, Mean (SD) change from Baseline (2 g daily, Day 28): −14.1 (26.89) μg/g
DGLA, Plasma, mean (SD) change from Baseline (2 g daily, Day 28): −16.2 (9.88) μg/g
DGLA, RBC, mean (SD) change from Baseline (2 g daily, Day 28): −4.5 (3.58) μg/g
DHA, Plasma, Mean (SD) change from Baseline (2 g daily, Day 28): −8.1 (15.82) μg/g
DHA, RBC, Mean (SD) change from Baseline (2 g daily, Day 28): −6.2 (9.34) μg/g
AA, Plasma, Mean (SD) change from Baseline (2 g daily, Day 42): −27.3 (26.76) μg/g
AA, RBC, Mean (SD) change from Baseline (2 g daily, Day 42): −18.8 (25.62) μg/g
DGLA, Plasma, mean (SD) change from Baseline (2 g daily, Day 42): −17.3 (9.92) μg/g
DGLA, RBC, mean (SD) change from Baseline (2 g daily, Day 42): −5.3 (3.65) μg/g
DHA, Plasma, Mean (SD) change from Baseline (2 g daily, Day 42): −6.0 (16.69) μg/g
DHA, RBC, Mean (SD) change from Baseline (2 g daily, Day 42): −6.3 (9.42) μg/g
AA, Plasma, LS Mean, 2 g versus 4 g (2 g versus 4 g): 15.6 µg/g
AA, RBC, LS Mean, 2 g versus 4 g (2 g versus 4 g): 9.8 µg/g
DGLA, Plasma, LS mean, 2 g versus 4 g (2 g versus 4 g): 2.5 µg/g
DGLA, RBC, LS mean, 2 g versus 4 g (2 g versus 4 g): 1.5 µg/g
DHA, Plasma, LS mean, 2 g versus 4 g (2 g versus 4 g): 1.5 µg/g
DHA, RBC, LS mean, 2 g versus 4 g (2 g versus 4 g): 1.0 µg/g
AA, Plasma, Mean (SD) change from Baseline (4 g daily, Day 14): −27.2 (28.89) μg/g
AA, RBC, Mean (SD) change from Baseline (4 g daily, Day 14): −15.7 (26.76) μg/g
DGLA, Plasma, mean (SD) change from Baseline (4 g daily, Day 14): −22.9 (9.00) μg/g
DGLA, RBC, mean (SD) change from Baseline (4 g daily, Day 14): −5.3 (4.10) μg/g
DHA, Plasma, Mean (SD) change from Baseline (4 g daily, Day 14): −10.3 (13.35) μg/g
DHA, RBC, Mean (SD) change from Baseline (4 g daily, Day 14): −6.9 (9.13) μg/g
AA, Plasma, Mean (SD) change from Baseline (4 g daily, Day 28): −43.7 (32.24) μg/g
AA, RBC, Mean (SD) change from Baseline (4 g daily, Day 28): −22.8 (29.56) μg/g
DGLA, Plasma, mean (SD) change from Baseline (4 g daily, Day 28): −24.2 (10.73) μg/g
DGLA, RBC, mean (SD) change from Baseline (4 g daily, Day 28): −7.1 (4.63) μg/g
DHA, Plasma, Mean (SD) change from Baseline (4 g daily, Day 28): −13.5 (14.10) μg/g
DHA, RBC, Mean (SD) change from Baseline (4 g daily, Day 28): −8.7 (11.63) μg/g
AA, Plasma, Mean (SD) change from Baseline (4 g daily, Day 42): −48.3 (22.20) μg/g
AA, RBC, Mean (SD) change from Baseline (4 g daily, Day 42): −34.4 (31.44) μg/g
DGLA, Plasma, mean (SD) change from Baseline (4 g daily, Day 42): −22.5 (10.87) μg/g
DGLA, RBC, mean (SD) change from Baseline (4 g daily, Day 42): −8.0 (4.98) μg/g
DHA, Plasma, Mean (SD) change from Baseline (4 g daily, Day 42): −13.8 (15.31) μg/g
DHA, RBC, Mean (SD) change from Baseline (4 g daily, Day 42): −13.8 (13.76) μg/g
EPA, DPAn-3 and EPA/AA ratio values, change from baseline to Day 42 (plasma and RBC, 1, 2 and 4 g treatment groups): increased substantially

Source: patent US20200268702A1, “METHODS OF TREATING […]” (Amarin Pharmaceuticals Ireland Limited, priority 2013, published 2020)
